From ChEMBL document CHEMBL4507270 (2021)
Calls of active or inactive are those of the source. The rule behind the calls is not given here.

Assays:
[1] = molecular target: Mitogen-activated protein kinase 12 (Homo sapiens) (UniProt P53778)
[2] = molecular target: Bone morphogenetic protein receptor type-1B (Homo sapiens) (UniProt O00238)
[3] = molecular target: Mast/stem cell growth factor receptor Kit (Homo sapiens) (UniProt P10721)
[4] = molecular target: Epithelial discoidin domain-containing receptor 1 (Homo sapiens, UniProt Q08345); experiment: NanoBRET assay (SGC Frankfurt) with DDR1
Chain of Epithelial discoidin domain-containing receptor 1 (Q08345 whole entry, the tested form may be a part): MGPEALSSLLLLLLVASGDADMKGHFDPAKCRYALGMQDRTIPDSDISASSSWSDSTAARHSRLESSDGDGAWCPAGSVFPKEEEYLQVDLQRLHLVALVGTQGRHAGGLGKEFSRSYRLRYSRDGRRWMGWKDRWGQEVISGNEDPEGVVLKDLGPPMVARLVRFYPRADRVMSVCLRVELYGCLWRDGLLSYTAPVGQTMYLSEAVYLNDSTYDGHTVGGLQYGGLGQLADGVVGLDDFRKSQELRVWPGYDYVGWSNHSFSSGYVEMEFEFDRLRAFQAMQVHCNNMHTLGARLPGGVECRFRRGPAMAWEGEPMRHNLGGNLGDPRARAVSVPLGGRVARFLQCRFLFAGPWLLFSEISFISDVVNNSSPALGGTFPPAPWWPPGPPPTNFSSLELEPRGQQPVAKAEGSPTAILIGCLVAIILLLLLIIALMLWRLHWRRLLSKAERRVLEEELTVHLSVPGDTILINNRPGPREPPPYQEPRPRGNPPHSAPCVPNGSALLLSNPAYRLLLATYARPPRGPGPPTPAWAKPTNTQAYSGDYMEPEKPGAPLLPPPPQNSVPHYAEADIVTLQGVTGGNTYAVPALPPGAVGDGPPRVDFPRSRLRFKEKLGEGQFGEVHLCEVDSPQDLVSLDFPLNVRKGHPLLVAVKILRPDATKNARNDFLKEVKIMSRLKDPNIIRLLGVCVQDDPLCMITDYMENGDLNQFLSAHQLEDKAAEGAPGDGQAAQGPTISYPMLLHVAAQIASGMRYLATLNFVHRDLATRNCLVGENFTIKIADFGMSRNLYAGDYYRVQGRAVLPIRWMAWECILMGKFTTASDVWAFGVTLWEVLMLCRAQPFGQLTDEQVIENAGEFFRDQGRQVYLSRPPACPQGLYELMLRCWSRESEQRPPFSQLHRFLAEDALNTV

[5] = molecular target: Serine/threonine-protein kinase TAO2 (Homo sapiens) (UniProt Q9UL54)
[6] = test system: Mast/stem cell growth factor receptor Kit (Homo sapiens), P10721 [A829P]
Chain of Mast/stem cell growth factor receptor Kit (Homo sapiens), P10721 [A829P] (P10721 whole entry A829P): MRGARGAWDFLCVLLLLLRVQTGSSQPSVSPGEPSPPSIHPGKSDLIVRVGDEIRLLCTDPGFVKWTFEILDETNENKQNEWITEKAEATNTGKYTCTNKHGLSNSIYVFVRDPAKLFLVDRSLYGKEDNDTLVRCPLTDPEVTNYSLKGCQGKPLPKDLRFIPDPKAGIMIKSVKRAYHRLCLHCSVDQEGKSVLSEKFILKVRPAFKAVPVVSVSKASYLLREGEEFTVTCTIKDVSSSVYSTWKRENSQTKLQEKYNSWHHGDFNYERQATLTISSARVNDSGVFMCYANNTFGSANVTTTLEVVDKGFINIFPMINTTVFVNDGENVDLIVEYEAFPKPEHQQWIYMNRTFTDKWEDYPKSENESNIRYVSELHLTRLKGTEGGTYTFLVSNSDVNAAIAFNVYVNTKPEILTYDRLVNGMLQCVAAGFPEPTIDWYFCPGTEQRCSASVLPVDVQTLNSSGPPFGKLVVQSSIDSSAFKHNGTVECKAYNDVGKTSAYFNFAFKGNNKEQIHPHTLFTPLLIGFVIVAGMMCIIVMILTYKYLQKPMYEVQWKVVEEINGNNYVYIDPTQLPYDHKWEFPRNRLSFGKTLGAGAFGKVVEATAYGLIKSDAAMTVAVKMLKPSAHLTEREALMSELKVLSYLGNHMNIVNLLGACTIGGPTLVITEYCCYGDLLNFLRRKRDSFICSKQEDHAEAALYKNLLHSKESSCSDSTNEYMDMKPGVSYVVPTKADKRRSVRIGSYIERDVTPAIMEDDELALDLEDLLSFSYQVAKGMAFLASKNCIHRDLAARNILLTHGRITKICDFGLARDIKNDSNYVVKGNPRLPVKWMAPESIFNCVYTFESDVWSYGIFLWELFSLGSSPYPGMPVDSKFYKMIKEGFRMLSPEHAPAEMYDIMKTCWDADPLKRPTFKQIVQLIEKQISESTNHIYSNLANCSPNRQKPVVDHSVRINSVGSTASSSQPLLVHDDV

[7] = molecular target: Insulin receptor (Homo sapiens) (UniProt P06213)
[8] = molecular target: Phosphatidylinositol 5-phosphate 4-kinase type-2 beta (Homo sapiens) (UniProt P78356)
[9] = molecular target: D(4) dopamine receptor (Homo sapiens) (UniProt P21917); settings: Compound concentration 10.0 uM
[10] = molecular target: Fibroblast growth factor receptor 4 (Homo sapiens) (UniProt P22455)
Chain of Fibroblast growth factor receptor 4 (Homo sapiens) (P22455 22-802 limits assumed): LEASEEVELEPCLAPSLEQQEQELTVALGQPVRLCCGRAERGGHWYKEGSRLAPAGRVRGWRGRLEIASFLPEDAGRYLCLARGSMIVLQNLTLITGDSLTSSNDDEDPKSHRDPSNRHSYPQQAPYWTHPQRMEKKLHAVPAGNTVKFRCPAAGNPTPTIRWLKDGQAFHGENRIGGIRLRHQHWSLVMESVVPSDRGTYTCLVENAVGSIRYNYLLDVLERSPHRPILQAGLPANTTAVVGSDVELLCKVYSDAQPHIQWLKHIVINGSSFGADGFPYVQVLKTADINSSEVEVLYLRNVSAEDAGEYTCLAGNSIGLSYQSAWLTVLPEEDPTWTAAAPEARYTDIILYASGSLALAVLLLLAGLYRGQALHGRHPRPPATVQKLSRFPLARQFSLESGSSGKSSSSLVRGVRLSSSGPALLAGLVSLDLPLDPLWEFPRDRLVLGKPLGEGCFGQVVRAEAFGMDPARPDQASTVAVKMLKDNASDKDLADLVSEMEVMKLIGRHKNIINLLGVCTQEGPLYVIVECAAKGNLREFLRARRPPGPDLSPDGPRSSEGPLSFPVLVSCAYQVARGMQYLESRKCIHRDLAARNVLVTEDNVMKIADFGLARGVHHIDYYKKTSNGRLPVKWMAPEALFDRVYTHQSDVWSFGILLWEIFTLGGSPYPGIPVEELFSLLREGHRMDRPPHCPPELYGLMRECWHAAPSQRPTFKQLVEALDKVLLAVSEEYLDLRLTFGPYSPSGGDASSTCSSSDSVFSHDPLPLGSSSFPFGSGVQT

[11] = test system: Receptor-type tyrosine-protein kinase FLT3 (Homo sapiens), P36888 [R834Q]
[12] = molecular target: Cyclin-dependent kinase 18 (Homo sapiens) (UniProt Q07002)
[13] = molecular target: Mitogen-activated protein kinase kinase kinase 12 (Homo sapiens) (UniProt Q12852)
Chain of Mitogen-activated protein kinase kinase kinase 12 (Homo sapiens) (Q12852 whole entry): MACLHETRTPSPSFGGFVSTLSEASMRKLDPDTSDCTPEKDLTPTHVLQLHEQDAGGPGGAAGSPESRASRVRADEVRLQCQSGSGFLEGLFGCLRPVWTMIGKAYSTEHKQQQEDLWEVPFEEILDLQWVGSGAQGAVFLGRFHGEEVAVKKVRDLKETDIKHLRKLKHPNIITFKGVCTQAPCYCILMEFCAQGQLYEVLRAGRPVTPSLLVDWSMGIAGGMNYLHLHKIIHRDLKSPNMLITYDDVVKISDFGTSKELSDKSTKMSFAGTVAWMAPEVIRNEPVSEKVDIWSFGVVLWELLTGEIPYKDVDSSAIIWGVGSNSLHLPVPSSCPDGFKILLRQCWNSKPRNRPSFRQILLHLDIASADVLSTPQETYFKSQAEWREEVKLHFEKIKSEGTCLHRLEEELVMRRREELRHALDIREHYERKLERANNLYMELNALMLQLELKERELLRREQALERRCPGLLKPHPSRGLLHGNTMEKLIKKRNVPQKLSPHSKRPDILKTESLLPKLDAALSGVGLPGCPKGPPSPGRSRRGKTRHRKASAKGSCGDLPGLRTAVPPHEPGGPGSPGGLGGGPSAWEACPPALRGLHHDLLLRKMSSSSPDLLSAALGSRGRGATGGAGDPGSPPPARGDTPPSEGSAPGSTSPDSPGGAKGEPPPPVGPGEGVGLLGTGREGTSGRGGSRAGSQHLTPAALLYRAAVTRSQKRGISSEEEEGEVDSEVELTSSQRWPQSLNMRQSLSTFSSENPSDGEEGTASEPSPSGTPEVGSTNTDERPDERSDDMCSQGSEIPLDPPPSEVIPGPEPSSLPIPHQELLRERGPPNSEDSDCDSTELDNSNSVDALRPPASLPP

[14] = molecular target: Activin receptor type-1B (Homo sapiens) (UniProt P36896)
[15] = molecular target: Ribosomal protein S6 kinase alpha-2 (Homo sapiens) (UniProt Q15349)
[16] = molecular target: Phosphatidylinositol 4,5-bisphosphate 3-kinase catalytic subunit beta isoform (Homo sapiens) (UniProt P42338)
[17] = molecular target: Serine/threonine-protein kinase RIO3 (Homo sapiens) (UniProt O14730)
[18] = molecular target: Serine/threonine-protein kinase NLK (Homo sapiens) (UniProt Q9UBE8)
[19] = molecular target: Alpha-1A adrenergic receptor (Homo sapiens) (UniProt P35348); settings: Compound concentration 10.0 uM
[20] = test system: Receptor-type tyrosine-protein kinase FLT3 (Homo sapiens), P36888 [UNDEFINED MUTATION]
[21] = molecular target: MAP kinase-activated protein kinase 2 (Homo sapiens) (UniProt P49137)
[22] = molecular target: Ribosomal protein S6 kinase alpha-6 (Homo sapiens) (UniProt Q9UK32)
[23] = molecular target: Phosphatidylinositol 4,5-bisphosphate 3-kinase catalytic subunit alpha isoform (Homo sapiens) (UniProt P42336)
[24] = molecular target: Serine/threonine-protein kinase 17A (Homo sapiens) (UniProt Q9UEE5)
[25] = molecular target: 5'-AMP-activated protein kinase catalytic subunit alpha-1 (Homo sapiens) (UniProt Q13131)
[26] = molecular target: Cyclin-dependent kinase-like 1 (Homo sapiens) (UniProt Q00532)
Chain of Cyclin-dependent kinase-like 1 (Homo sapiens) (Q00532 whole entry): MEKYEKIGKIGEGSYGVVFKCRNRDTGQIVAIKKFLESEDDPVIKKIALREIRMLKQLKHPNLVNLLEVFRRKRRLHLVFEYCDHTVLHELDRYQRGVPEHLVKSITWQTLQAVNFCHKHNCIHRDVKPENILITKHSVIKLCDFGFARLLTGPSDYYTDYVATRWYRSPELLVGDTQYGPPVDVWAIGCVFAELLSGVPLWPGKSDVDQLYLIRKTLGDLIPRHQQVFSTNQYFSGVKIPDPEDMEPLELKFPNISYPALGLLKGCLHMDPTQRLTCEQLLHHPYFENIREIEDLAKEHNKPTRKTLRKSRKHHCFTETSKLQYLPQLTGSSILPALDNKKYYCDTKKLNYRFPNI

[27] = molecular target: Serine/threonine-protein kinase 32B (Homo sapiens) (UniProt Q9NY57)
Chain of Serine/threonine-protein kinase 32B (Homo sapiens) (Q9NY57 whole entry): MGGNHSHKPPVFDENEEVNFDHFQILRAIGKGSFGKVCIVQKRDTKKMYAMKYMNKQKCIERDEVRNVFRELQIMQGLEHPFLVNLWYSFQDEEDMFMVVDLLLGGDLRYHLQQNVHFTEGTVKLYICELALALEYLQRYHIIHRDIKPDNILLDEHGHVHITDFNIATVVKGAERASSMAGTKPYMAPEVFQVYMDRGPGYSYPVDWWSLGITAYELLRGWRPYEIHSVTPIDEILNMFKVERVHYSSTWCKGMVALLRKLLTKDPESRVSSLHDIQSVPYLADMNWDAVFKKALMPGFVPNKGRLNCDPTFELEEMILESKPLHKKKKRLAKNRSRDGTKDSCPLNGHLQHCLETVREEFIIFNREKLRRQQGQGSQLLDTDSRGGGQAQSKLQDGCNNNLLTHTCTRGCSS

[28] = molecular target: Calcium/calmodulin-dependent protein kinase type II subunit alpha (Homo sapiens) (UniProt Q9UQM7)
[29] = molecular target: Calcium/calmodulin-dependent protein kinase type II subunit delta (Homo sapiens) (UniProt Q13557)
[30] = molecular target: Serine/threonine-protein kinase Sgk3 (Homo sapiens) (UniProt Q96BR1)
[31] = molecular target: Leucine-rich repeat serine/threonine-protein kinase 2 (Homo sapiens) (UniProt Q5S007)
[32] = molecular target: 5-hydroxytryptamine receptor 1D (Homo sapiens) (UniProt P28221); settings: Compound concentration 10.0 uM
[33] = molecular target: Serine/threonine-protein kinase MRCK beta (Homo sapiens) (UniProt Q9Y5S2)
[34] = molecular target: Mitotic checkpoint serine/threonine-protein kinase BUB1 (Homo sapiens) (UniProt O43683)
[35] = molecular target: Tyrosine-protein kinase receptor TYRO3 (Homo sapiens) (UniProt Q06418)
[36] = molecular target: Glycogen synthase kinase-3 alpha (Homo sapiens) (UniProt P49840)
[37] = molecular target: Tyrosine-protein kinase FRK (Homo sapiens) (UniProt P42685)
Chain of Tyrosine-protein kinase FRK (Homo sapiens) (P42685 whole entry): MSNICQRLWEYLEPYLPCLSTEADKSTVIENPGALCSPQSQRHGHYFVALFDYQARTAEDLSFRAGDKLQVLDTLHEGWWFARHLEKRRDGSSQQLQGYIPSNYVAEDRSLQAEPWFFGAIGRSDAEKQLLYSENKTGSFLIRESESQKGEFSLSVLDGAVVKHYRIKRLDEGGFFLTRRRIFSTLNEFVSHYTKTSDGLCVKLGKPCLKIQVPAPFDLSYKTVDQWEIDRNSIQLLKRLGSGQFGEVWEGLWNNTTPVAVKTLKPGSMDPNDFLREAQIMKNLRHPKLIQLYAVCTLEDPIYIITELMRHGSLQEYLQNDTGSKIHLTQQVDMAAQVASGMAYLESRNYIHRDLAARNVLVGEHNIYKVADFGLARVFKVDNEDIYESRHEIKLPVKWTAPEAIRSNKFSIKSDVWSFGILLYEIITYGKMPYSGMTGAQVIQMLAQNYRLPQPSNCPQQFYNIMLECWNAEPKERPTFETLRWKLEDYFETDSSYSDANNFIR

[38] = molecular target: Mitogen-activated protein kinase kinase kinase 3 (Homo sapiens) (UniProt Q99759)
[39] = molecular target: Tyrosine-protein kinase Fyn (Homo sapiens) (UniProt P06241)
[40] = molecular target: Homeodomain-interacting protein kinase 4 (Homo sapiens) (UniProt Q8NE63)
[41] = molecular target: Activin receptor type-2B (Homo sapiens) (UniProt Q13705)
[42] = molecular target: Serine/threonine-protein kinase WNK4 (Homo sapiens) (UniProt Q96J92)
[43] = molecular target: cAMP-dependent protein kinase catalytic subunit beta (Homo sapiens) (UniProt P22694)
[44] = molecular target: Serine/threonine-protein kinase VRK2 (Homo sapiens) (UniProt Q86Y07)
[45] = GPCRScan assay: inhibition of GABA/PBR; set-up: species or system Rattus norvegicus; radioligand conc. used [nm] 0.3 – 2.0, parental cells brain tissue
[46] = Compound concentration 1000.0 nM
[47] = Compound concentration 100.0 nM

Chain of Mast/stem cell growth factor receptor Kit (Homo sapiens) (P10721 whole entry, the tested form may be a part): as the sequence (P10721 whole entry A829P) above, with P829A counted along it

## Cc1cc(NC(=O)c2cccc(S(F)(F)(F)(F)F)c2)cc(-n2ccn3nc(-c4cccnc4)cc23)c1 [BAY-309]
[1]; [46]
  residual activity: 41.7%
[2]; [46]
  residual activity: 100%
[3]; [46]
  residual activity: 89.5%
[4]
  EC50: 200 nM (not active)
  IC50: 340 nM (not active)
[5]; [46]
  residual activity: 91.3%
[6]; [46]
  residual activity: 100%
[7]; [46]
  residual activity: 100%
[8]; [46]
  residual activity: 100%
[9]
  inhibition: 12.4%
[10]; [46]
  residual activity: 100%
[11]; [46]
  residual activity: 100%
[12]; [46]
  residual activity: 80.6%
[13]; [46]
  residual activity: 67.7%
[14]; [46]
  residual activity: 100%
[15]; [46]
  residual activity: 100%
[16]; [46]
  residual activity: 100%
[17]; [46]
  residual activity: 85.9%
[18]; [46]
  residual activity: 100%
[19]
  inhibition: 5.89%
[20]; [46]
  residual activity: 95.8%
[21]; [46]
  residual activity: 100%
[22]; [46]
  residual activity: 100%
[23]; [46]
  residual activity: 100%
[24]; [46]
  residual activity: 100%
[25]; [46]
  residual activity: 100%
[26]; [46]
  residual activity: 84.5%
[27]; [46]
  residual activity: 100%
[28]; [46]
  residual activity: 100%
[29]; [46]
  residual activity: 80%
[30]; [46]
  residual activity: 72.1%
[31]; [46]
  residual activity: 74.6%
[32]
  inhibition: 15.4%
[33]; [46]
  residual activity: 100%
[34]; [46]
  residual activity: 100%
[35]; [46]
  residual activity: 88.4%
[36]; [46]
  residual activity: 100%
[37]; [46]
  residual activity: 100%
[38]; [46]
  residual activity: 87.9%
[39]; [46]
  residual activity: 81.3%
[40]; [46]
  residual activity: 100%
[41]; [46]
  residual activity: 100%
[42]; [46]
  residual activity: 100%
[43]; [46]
  residual activity: 100%
[44]; [46]
  residual activity: 100%
[45]
  Ki: 10.9 nM
  pKi: 8.03

## Cc1cc(C)c(-n2ccn3nc(-c4cccnc4)cc23)cc1NC(=O)c1cc(C#N)cc(S(F)(F)(F)(F)F)c1 [BAY-826]
[1]; [47]
  residual activity: 61.2%
[2]; [47]
  residual activity: 72.3%
[3]; [47]
  residual activity: 44.5%
[4]
  EC50: 1.5 nM (active)
  IC50: 0.9 nM (active)
[5]; [47]
  residual activity: 48.2%
[6]; [47]
  residual activity: 50.9%
[7]; [47]
  residual activity: 69%
[8]; [47]
  residual activity: 52.2%
[9]
  inhibition: 16.4%
[10]; [47]
  residual activity: 99.4%
[11]; [47]
  residual activity: 62.3%
[12]; [47]
  residual activity: 98.4%
[13]; [47]
  residual activity: 82.5%
[14]; [47]
  residual activity: 100%
[15]; [47]
  residual activity: 65.1%
[16]; [47]
  residual activity: 89.1%
[17]; [47]
  residual activity: 100%
[18]; [47]
  residual activity: 100%
[19]
  inhibition: -3.02%
[20]; [47]
  residual activity: 100%
[21]; [47]
  residual activity: 100%
[22]; [47]
  residual activity: 80.4%
[23]; [47]
  residual activity: 87.9%
[24]; [47]
  residual activity: 100%
[25]; [47]
  residual activity: 77%
[26]; [47]
  residual activity: 77.4%
[27]; [47]
  residual activity: 94.3%
[28]; [47]
  residual activity: 95%
[29]; [47]
  residual activity: 89.1%
[30]; [47]
  residual activity: 81.5%
[31]; [47]
  residual activity: 83.5%
[32]
  inhibition: 9.27%
[33]; [47]
  residual activity: 95.5%
[34]; [47]
  residual activity: 99.8%
[35]; [47]
  residual activity: 72.4%
[36]; [47]
  residual activity: 100%
[37]; [47]
  residual activity: 59.1%
[38]; [47]
  residual activity: 67.3%
[39]; [47]
  residual activity: 97.5%
[40]; [47]
  residual activity: 95.6%
[41]; [47]
  residual activity: 88.7%
[42]; [47]
  residual activity: 100%
[43]; [47]
  residual activity: 100%
[44]; [47]
  residual activity: 79.8%
[45]
  Ki: 217 nM
